In patent US20240228458A1, “PYRIMIDINE DERIVATIVE HAVING PROTEIN KINASE INHIBITORY ACTIVITY, AND THERAPEUTIC PHARMACEUTICAL COMPOSITION COMPRISING SAME” (THERAPEX CO., LTD., priority 2021, published 2024):

Assays:
Type in all cases: cell-based
[1] = tested on: Ba/F3 cells expressing EGFR-wt; experiment: Growth inhibition (GI50) of Ba/F3 cells expressing EGFR-wt, Celltiter glo; settings: Mus musculus, BaF3, 72 h
Outline: (§1)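 Viable-cell luminescence (CellTiter-Glo) after 72 h compound exposure at 37 °C, 5% CO2 gave GI50 (μM, 50% growth inhibition). Compounds were 4-fold serial dilutions, 10 points, from a 2 mM stock, 0.5% DMSO, added 4 h after plating EGFR-variant Ba/F3 cells at 100,000 cells/ml.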

[2] = tested on: Ba/F3 cells expressing L858R/T790M (EGFR-LT); experiment: Growth inhibition (GI50) of Ba/F3 cells expressing L858R/T790M (EGFR-LT), Celltiter glo; settings: Mus musculus, BaF3, 72 h
Outline: as §1

parental Ba/F3 cell line = experiment: Growth inhibition (GI50) of the parental Ba/F3 cell line (not introduced with EGFR variants), Celltiter glo; settings: Mus musculus, BaF3, 72 h, parental Ba/F3 cells
Outline: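 Parental Ba/F3 cells (100,000 cells/ml) were treated with 10-point, 4-fold compound dilutions (0.5% DMSO; top stock 2 mM) for 72 h at 37 °C, 5% CO2. Viability was read by CellTiter-Glo; GI50 is the concentration (μM) giving 50% growth inhibition.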

[3] = tested on: Ba/F3 cells expressing del19/T790M (EGFR-DT); experiment: Growth inhibition (GI50) of Ba/F3 cells expressing del19/T790M (EGFR-DT), Celltiter glo; settings: Mus musculus, BaF3, 72 h
Outline: as §1

[4] = tested on: Ba/F3 cells expressing del19/T790M/C797S (EGFR-DTC); experiment: Growth inhibition (GI50) of Ba/F3 cells expressing del19/T790M/C797S (EGFR-DTC), Celltiter glo; settings: Mus musculus, BaF3, 72 h
Outline: as §1

[5] = tested on: Ba/F3 cells expressing L858R/T790M/C797S (EGFR-LTC); experiment: Growth inhibition (GI50) of Ba/F3 cells expressing L858R/T790M/C797S (EGFR-LTC), Celltiter glo; settings: Mus musculus, BaF3, 72 h
Outline: as §1

Structure (SMILES)	GI50 [1] [nM]	GI50 [2] [nM]	GI50 (parental Ba/F3 cell line) [nM]	GI50 [3] [nM]	GI50 [4] [nM]	GI50 [5] [nM]
COc1cc(N2CCC(N3CCN(C)CC3)CC2)c(F)cc1Nc1ncc(Br)c(Nc2cc3c(cc2N(C)S(C)(=O)=O)CCO3)n1 [Example 256, N-(6-((5-bromo-2-((5-fluoro-2-methoxy-4-(4-(4-methylpiperazin-1-yl)piperidin-1-yl)phenyl)amino)pyrimidin-4-yl)amino)-2,3-dihydrobenzofuran-5-yl)-N-methylmethanesulfonamide]	100 to 500	100 to 500	100 to 500	1 to 25	25 to 100	100 to 500
CN1CCN(C2CCN(c3cc(Cl)c(Nc4ncc(Cl)c(Nc5cc6c(cc5N(C)S(C)(=O)=O)CCO6)n4)cc3Cl)CC2)CC1 [Example 259, N-(6-((5-chloro-2-((2,5-dichloro-4-(4-(4-methylpiperazin-1-yl)piperidin-1-yl)phenyl)amino)pyrimidin-4-yl)amino)-2,3-dihydrobenzofuran-5-yl)-N-methylmethanesulfonamide]	500 to 2000	25 to 100	500 to 2000	25 to 100	1 to 25	100 to 500
COc1ccc(N(C)S(C)(=O)=O)c(Nc2nc(Nc3cc(C)c(N4CCC(N5CCN(C)CC5)CC4)cc3OC)ncc2Cl)c1 [Example 260, N-(2-((5-chloro-2-((2-methoxy-5-methyl-4-(4-(4-methylpiperazin-1-yl)piperidin-1-yl)phenyl)amino)pyrimidin-4-yl)amino)-4-methoxyphenyl)-N-methylmethanesulfonamide]	100 to 500	25 to 100	2000 to 10000	1 to 25	100 to 500	100 to 500
COc1cc(N2CCC(N3CCN(C4CC4)CC3)CC2)c(C)cc1Nc1ncc(Br)c(Nc2cc3c(cc2N(C)S(C)(=O)=O)CCO3)n1 [Example 261, N-(6-((5-bromo-2-((4-(4-(4-cyclopropylpiperazin-1-yl)piperidin-1-yl)-2-methoxy-5-methylphenyl)amino)pyrimidin-4-yl)amino)-2,3-dihydrobenzofuran-5-yl)-N-methylmethanesulfonamide]	25 to 100	25 to 100	2000 to 10000	1 to 25	100 to 500	25 to 100
COc1cc(N2CCC(N3CCC(N(C)C)C3)CC2)c(C)cc1Nc1ncc(Br)c(Nc2cc3c(cc2N(C)S(C)(=O)=O)CCO3)n1 (stereo not drawn) [Example 262, N-(6-((5-bromo-2-((4-(4-(3-(dimethylamino)pyrrolidin-1-yl)piperidin-1-yl)-2-methoxy-5-methylphenyl)amino)pyrimidin-4-yl)amino)-2,3-dihydrobenzofuran-5-yl)-N-methylmethanesulfonamide]	100 to 500	25 to 100	25 to 100	1 to 25	25 to 100	25 to 100
Cc1cc(Nc2ncc(Cl)c(Nc3cc4c(cc3N(C)S(C)(=O)=O)CCO4)n2)c(Cl)cc1N1CCC(N2CCN(C)CC2)CC1 [Example 263, N-(6-((5-chloro-2-((2-chloro-5-methyl-4-(4-(4-methylpiperazin-1-yl)piperidin-1-yl)phenyl)amino)pyrimidin-4-yl)amino)-2,3-dihydrobenzofuran-5-yl)-N-methylmethanesulfonamide]	500 to 2000	100 to 500	> 10000	100 to 500	500 to 2000	100 to 500
COc1cc(N2CCC(N3CCCN(C)CC3)CC2)c(Cl)cc1Nc1ncc(Cl)c(Nc2cc3c(cc2N(C)S(C)(=O)=O)CCO3)n1 [Example 264, N-(6-((5-chloro-2-((5-chloro-2-methoxy-4-(4-(4-methyl-1,4-diazepan-1-yl)piperidin-1-yl)phenyl)amino)pyrimidin-4-yl)amino)-2,3-dihydrobenzofuran-5-yl)-N-methylmethanesulfonamide]	100 to 500	1 to 25	2000 to 10000	1 to 25	25 to 100	25 to 100
COc1cc(N2CCC(N3CCCN(C)CC3)CC2)c(C)cc1Nc1ncc(Cl)c(Nc2cc3c(cc2N(C)S(C)(=O)=O)CCO3)n1 [Example 265, N-(6-((5-chloro-2-((2-methoxy-5-methyl-4-(4-(4-methyl-1,4-diazepan-1-yl)piperidin-1-yl)phenyl)amino)pyrimidin-4-yl)amino)-2,3-dihydrobenzofuran-5-yl)-N-methylmethanesulfonamide]	100 to 500	25 to 100	500 to 2000	25 to 100	25 to 100	25 to 100
COc1cc(N2CCC(N3CCN(C4CC4)CC3)CC2)c(C)cc1Nc1ncc(Cl)c(Nc2cc3c(cc2N(C)S(C)(=O)=O)CCO3)n1 [Example 266, N-(6-((5-chloro-2-((4-(4-(4-cyclopropylpiperazin-1-yl)piperidin-1-yl)-2-methoxy-5-methylphenyl)amino)pyrimidin-4-yl)amino)-2,3-dihydrobenzofuran-5-yl)-N-methylmethanesulfonamide]	2000 to 10000	100 to 500	2000 to 10000	25 to 100	500 to 2000	100 to 500
COc1cc(N2CCC(N3CCCC(N(C)C)C3)CC2)c(C)cc1Nc1ncc(Cl)c(Nc2cc3c(cc2N(C)S(C)(=O)=O)CCO3)n1 (stereo not drawn) [Example 267, N-(6-((5-chloro-2-((4-(3-(dimethylamino)-[1,4′-bipiperidin]-1′-yl)-2-methoxy-5-methylphenyl)amino)pyrimidin-4-yl)amino)-2,3-dihydrobenzofuran-5-yl)-N-methylmethanesulfonamide]	500 to 2000	25 to 100	500 to 2000	25 to 100	100 to 500	25 to 100
